Measurements from US20070117743A1, “New antitumoral compounds” (priority 2003, published 2007).
Where a SMILES comes first, the peptide text is derived from it. Bridges are numbered along the chain shown (N, C = ends). [ ]: non-standard residue; d: D form. The star is where a group is joined. d(aIle) = CC[C@H](C)[C@@H](N)C(=O)O; d(aThr) = C[C@@H](O)[C@@H](N)C(=O)O; Hexanoyl(5-Me) = CC(C)CCCC(=O)*; Orn = NCCC[C@H](N)C(=O)O; Dhb = C/C=C(\N)C(=O)O

Legend:
Assay type in all cases: cell-based, human
[1] = tested on: LoVo-Dox; assay: SRB colorimetric assay of cell growth and viability, LoVo-Dox; conditions: 48 hours exposure; for CC50: read-out: LC50 LOVO-DOX
How it was run: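 Absorbance at 490 nm of Tris-solubilized sulforhodamine B gives the read-out after cells are fixed with cold 50% TCA for 60 min at 4° C. Compound exposure lasts 48 hours over 10 to 10^−8 μg/mL. Growth inhibition, total growth inhibition and lethal concentration are calculated from triplicate wells.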

[2] = tested on: LNCaP; assay: SRB colorimetric assay of cell growth and viability, LNCaP; conditions: 48 hours exposure; for GI50: read-out: GI50 LN-caP; for CC50: read-out: LC50 LN-caP
[3] = tested on: HT-29; assay: SRB colorimetric assay of cell growth and viability, HT-29; conditions: 48 hours exposure; for GI50: read-out: GI50 HT-29; for CC50: read-out: LC50 HT-29
[4] = tested on: SK-BR-3; assay: SRB colorimetric assay of cell growth and viability, SK-BR-3; conditions: 48 hours exposure
[5] = tested on: A-549; assay: SRB colorimetric assay of cell growth and viability, A-549; conditions: 48 hours exposure; for GI50: read-out: GI50 A-549; for CC50: read-out: LC50 A-549
[6] = tested on: IGROV-1; assay: SRB colorimetric assay of cell growth and viability, IGROV-1; conditions: 48 hours exposure
[7] = tested on: DU-145; assay: SRB colorimetric assay of cell growth and viability, DU-145; conditions: 48 hours exposure
[8] = tested on: IGROV-ET; assay: SRB colorimetric assay of cell growth and viability, IGROV-ET; conditions: 48 hours exposure; for CC50: read-out: LC50 IGROV-ET
[9] = tested on: K-562; assay: SRB colorimetric assay of cell growth and viability, K-562; conditions: 48 hours exposure; for CC50: read-out: LC50 K-562
[10] = tested on: PANC-1; assay: SRB colorimetric assay of cell growth and viability, PANC-1; conditions: 48 hours exposure; for CC50: read-out: LC50 PANC-1
[11] = tested on: LoVo; assay: SRB colorimetric assay of cell growth and viability, LoVo; conditions: 48 hours exposure; for CC50: read-out: LC50 LOVO
[12] = tested on: HeLa; assay: SRB colorimetric assay of cell growth and viability, HeLa; conditions: 48 hours exposure; for CC50: read-out: LC50 HELA
[13] = tested on: HeLa-APL; assay: SRB colorimetric assay of cell growth and viability, HeLa-APL; conditions: 48 hours exposure; for CC50: read-out: LC50 HELA-APL
[14] = tested on: SK-MEL-28; assay: SRB colorimetric assay of cell growth and viability, SK-MEL-28; conditions: 48 hours exposure; for CC50: read-out: LC50 MEL-28

C/C=C1\NC(=O)[C@H](Cc2ccccc2)NC(=O)[C@@H](C(C)C)NC(=O)[C@@H]([C@@H](C)CC)NC(=O)[C@H](NC(=O)[C@H](NC(=O)[C@H](CCCN)NC(=O)[C@H]2CCCN2C(=O)[C@H](NC(=O)[C@@H](NC(=O)[C@@H](NC(=O)[C@H](NC(=O)C(F)(F)C(F)(F)C(F)(F)C(F)(F)C(F)(F)C(F)(F)F)C(C)C)[C@@H](C)O)C(C)C)C(C)C)[C@@H](C)CC)[C@@H](C)OC(=O)[C@H](C(C)C)NC1=O [Compound 26, [Pfh^14]-KF]
GI50 [1]: 0.131 µM | TGI LOVO-DOX [1]: 2.52E−07 Molar | CC50 [1]: 0.484 µM | TGI LN-caP [2]: 1.72E−06 Molar | GI50 [2]: 0.9 µM | CC50 [2]: 3.28 µM | TGI HT-29 [3]: 4.55E−07 Molar | GI50 [3]: 0.203 µM | CC50 [3]: 1.89 µM | GI50 [4]: 0.144 µM | LC50 [4]: 2.18 µM | TGI SK-BR-3 [4]: 4.92E−07 Molar | TGI A-549 [5]: 1.48E−06 Molar | GI50 [5]: 0.684 µM | CC50 [5]: 3.19 µM | GI50 [6]: 0.648 µM | LC50 (concentration causing 50% net cell killing) [6]: 3.36 µM | TGI IGROV [6]: 1.48E−06 Molar | GI50 [7]: 0.596 µM | LC50 (concentration causing 50% net cell kill) [7]: 3.35 µM | TGI DU-145 [7]: 1.41E−06 Molar | GI50 [8]: 0.199 µM | TGI IGROV-ET [8]: 5.14E−07 Molar | CC50 [8]: 2.04 µM | GI50 [9]: 1.33 µM | TGI K-562 [9]: 2.33E−06 Molar | CC50 [9]: 4.07 µM | GI50 [10]: 2.01 µM | TGI PANC-1 [10]: 5.50E−06 Molar | CC50 [10]: 5.84 µM | GI50 [11]: 0.654 µM | TGI LOVO [11]: 1.38E−06 Molar | CC50 [11]: 2.99 µM | GI50 [12]: 0.701 µM | TGI HELA [12]: 1.57E−06 Molar | CC50 [12]: 3.51 µM | GI50 [13]: 0.455 µM | TGI HELA-APL [13]: 1.33E−06 Molar | CC50 [13]: 3.52 µM | GI50 [14]: 0.754 µM | TGI MEL-28 [14]: 1.50E−06 Molar | CC50 [14]: 2.96 µM

C/C=C1\NC(=O)[C@H](Cc2ccccc2)NC(=O)[C@@H](C(C)C)NC(=O)[C@@H]([C@@H](C)CC)NC(=O)[C@H](NC(=O)[C@H](NC(=O)[C@H](CCCN)NC(=O)[C@H]2CCCN2C(=O)[C@H](NC(=O)[C@H](CCC(=O)O)NC(=O)[C@@H](NC(=O)[C@H](NC(=O)CCCC(C)C)C(C)C)[C@@H](C)O)C(C)C)[C@@H](C)CC)[C@@H](C)OC(=O)[C@H](C(C)C)NC1=O [Compound 51, [Glu^11]-KF] ({Hexanoyl(5-Me)}-[dV]TE[dV][dP][Orn][d(aIle)][d(aThr)][d(aIle)][dV]F[Dhb]V; ester 8-C)
GI50 [1]: 6.63 µM | TGI LOVO-DOX [1]: 6.63E−06 Molar | CC50 [1]: 6.63 µM | TGI LN-caP [2]: 6.63E−06 Molar | GI50 [2]: 6.63 µM | CC50 [2]: 6.63 µM | TGI HT-29 [3]: 6.63E−06 Molar | GI50 [3]: 6.63 µM | CC50 [3]: 6.63 µM | GI50 [4]: 6.63 µM | LC50 [4]: 6.63 µM | TGI SK-BR-3 [4]: 6.63E−06 Molar | TGI A-549 [5]: 6.63E−06 Molar | GI50 [5]: 6.63 µM | CC50 [5]: 6.63 µM | GI50 [6]: 6.63 µM | LC50 (concentration causing 50% net cell killing) [6]: 6.63 µM | TGI IGROV [6]: 6.63E−06 Molar | GI50 [7]: 6.63 µM | LC50 (concentration causing 50% net cell kill) [7]: 6.63 µM | TGI DU-145 [7]: 6.63E−06 Molar | GI50 [8]: 6.63 µM | TGI IGROV-ET [8]: 6.63E−06 Molar | CC50 [8]: 6.63 µM | GI50 [9]: 6.63 µM | TGI K-562 [9]: 6.63E−06 Molar | CC50 [9]: 6.63 µM | GI50 [10]: 6.63 µM | TGI PANC-1 [10]: 6.63E−06 Molar | CC50 [10]: 6.63 µM | GI50 [11]: 6.63 µM | TGI LOVO [11]: 6.63E−06 Molar | CC50 [11]: 6.63 µM | GI50 [12]: 6.63 µM | TGI HELA [12]: 6.63E−06 Molar | CC50 [12]: 6.63 µM | GI50 [13]: 6.63 µM | TGI HELA-APL [13]: 6.63E−06 Molar | CC50 [13]: 6.63 µM | GI50 [14]: 6.63 µM | TGI MEL-28 [14]: 6.63E−06 Molar | CC50 [14]: 6.63 µM

C/C=C1\NC(=O)[C@H](Cc2ccccc2)NC(=O)[C@@H](C(C)C)NC(=O)[C@@H]([C@@H](C)CC)NC(=O)[C@H](NC(=O)[C@H](NC(=O)[C@H](CCCN)NC(=O)[C@H]2CCCN2C(=O)[C@H](NC(=O)[C@@H](NC(=O)[C@@H](NC(=O)[C@H](NC(=O)CCCC(C)C)C(C)C)[C@@H](C)O)C(C)C)C(C)C)[C@@H](C)CC)COC(=O)[C@H](C(C)C)NC1=O [Compound 3, [D-Ser^6]-KF] ({Hexanoyl(5-Me)}-[dV]TV[dV][dP][Orn][d(aIle)][dS][d(aIle)][dV]F[Dhb]V; ester 8-C)
GI50 [1]: 0.179 µM | TGI LOVO-DOX [1]: 3.37E−07 Molar | CC50 [1]: 0.637 µM | TGI LN-caP [2]: 1.12E−06 Molar | GI50 [2]: 0.372 µM | CC50 [2]: 2.94 µM | TGI HT-29 [3]: 1.22E−06 Molar | GI50 [3]: 0.378 µM | CC50 [3]: 3.52 µM | GI50 [4]: 0.406 µM | LC50 [4]: 2.45 µM | TGI SK-BR-3 [4]: 6.23E−07 Molar | TGI A-549 [5]: 2.46E−06 Molar | GI50 [5]: 1.36 µM | CC50 [5]: 4.47 µM | GI50 [6]: 0.455 µM | LC50 (concentration causing 50% net cell killing) [6]: 3.16 µM | TGI IGROV [6]: 1.27E−06 Molar | GI50 [7]: 0.833 µM | LC50 (concentration causing 50% net cell kill) [7]: 3.44 µM | TGI DU-145 [7]: 1.69E−06 Molar | GI50 [8]: 0.264 µM | TGI IGROV-ET [8]: 6.38E−07 Molar | CC50 [8]: 2.11 µM | GI50 [9]: 5.08 µM | TGI K-562 [9]: 6.83E−06 Molar | CC50 [9]: ≥ 6.83 µM | GI50 [10]: 3.08 µM | TGI PANC-1 [10]: 6.83E−06 Molar | CC50 [10]: ≥ 6.83 µM | GI50 [11]: 0.189 µM | TGI LOVO [11]: 3.64E−07 Molar | CC50 [11]: 0.758 µM | GI50 [12]: 1.35 µM | TGI HELA [12]: 2.64E−06 Molar | CC50 [12]: 5.21 µM | GI50 [13]: 1.37 µM | TGI HELA-APL [13]: 2.28E−06 Molar | CC50 [13]: 3.78 µM | GI50 [14]: 1.57 µM | TGI MEL-28 [14]: 2.66E−06 Molar | CC50 [14]: 4.53 µM
